Assay results taken from US9963461B2, “Phillygenin ibuprofen ester, preparation method therefor, and application thereof” (priority 2014, dated 2018).
Marks after values point to notes of the source that are not given here.

Legend:
[1] = tested on: Coxsackie virus A16 (CoxA16); test: Impact of the drugs on the virus-induced cytopathy (MTT); format: cell-based; settings: CoxA16 100 TCID50, Vero cells, about the maximal non-cytotoxic concentration, 72 hours
[2] = tested on: coxsackie virus B3 (CVB3); test: as above; format: cell-based; settings: CVB3 100 TCID50, Vero cells, about the maximal non-cytotoxic concentration, 72 hours
Enterovirus EV71 = test: as above; format: cell-based; settings: EV71 100 TCID50, Vero cells, about the maximal non-cytotoxic concentration, 72 hours
influenza virus = test: as above; format: cell-based; settings: influenza virus 100 TCID50, Vero cells, about the maximal non-cytotoxic concentration, 72 hours
parainfluenza virus = test: as above; format: cell-based; settings: parainfluenza virus 100 TCID50, Vero cells, about the maximal non-cytotoxic concentration, 72 hours
[3] = tested on: rat toe swelling induced by carrageenan; test: Rat toe swelling induced by carrageenan; format: in vivo, Wistar rats
Protocol: The test groups were administered by sublingual intravenous injection. Before the test, capillary magnification measurement method was used to measure the normal volume of the right hind foot of the rats in each group. To avoid errors, the measurement location was fixed and the operation was made by one person both before and after the administration. The average value of the two measurements was taken as the normal volume of the right hind foot of the rats before administration. […] The difference between the groups was compared by inter-group t test processing through the difference percentage (swelling ratio) of the paw volume before and after the induced rat inflammation.

[4] = tested on: beer yeast induced rat fever; test: Beer yeast induced rat fever; format: in vivo, Wistar rats
Protocol: Male Wistar rats were selected, weighing 180-200 g. Before the test, WSC-411P portable digital thermometer was used to measure the normal rectal temperature twice (with certain interval for each time), and the average value of the two measurements was taken as the normal body temperature of the rat. Then 70 rats with the body temperature between 36.5° C. and 38° C. were chosen to be randomly divided into 7 groups by weight: the model (0.5% carboxymethylcellulose) group, the 2.5, 5, and 10 mg/kg phillygenin ibuprofen ester groups, the positive drug paracetamol (100 mg/kg) group, the ibuprofen group (i.e. prodrug control group, 300 mg/kg), the phillygenin group (100 mg/kg), with 10 rats for each group. Each group of rats were subjected to back subcutaneous injection with 10% fresh beer yeast suspension of 10 ml/kg to induce heat. After administration of 10% fresh beer yeast suspension for 6.0 h, phillygenin ibuprofen ester and paracetamol were both subjected to intragastric administration, and the model group was intragastrically administrated with equal volume of 0.5% carboxymethylcellulose. Rectal temperature was measured after 1 h, 2 h, 3 h and 4 h of the administration respectively. Changes in the body temperature were observed and difference between the groups was compared by inter-group t test processing through antipyretic percentage.

[5] = tested on: sweat secretion of rat paw part; test: Sweat secretion of rat paw part (coloring method); format: in vivo, Wistar rats; settings: for Animal number of sweat points of level + / Animal number of sweat points of level ++ / Animal number of sweat points of level +++ / Animal number of sweat points of level ++++ / Animal number of sweat points of level −: after coating B liquid for 1 minute; for Animal number of sweat points of level +: + = sweat area below about 10%; for Animal number of sweat points of level ++: ++ = sweat area about 11-40%; for Animal number of sweat points of level +++: +++ = sweat area about 41-70%; for Animal number of sweat points of level ++++: ++++ = sweat area over 71%; for Animal number of sweat points of level −: − = no sweat point
Source text: This test was designed to observe the change of sweat secretion based on the mechanism that sweat gland is distributed on the rat paw pads, and iodine and starch can have purple reaction when encountered with sweat. In the test, 350 Wistar rats were selected, with equal male and female number, weighing 120-150 g. […] The rats were placed in a self-made rat fixation bag, with the double hind limbs exposed. The dirts on the right paw was gently scrubbed clean with the cotton swab dipped with anhydrous ethanol. Besides that subcutaneous injection was used for the pilocarpine solution, intragastric administration was used for all the other groups. […] When the test was complete, statistical process was carried out according to the rank-sum test with two-sample comparison, in order to compare the difference between the groups.

[6] = 2.5 mg/kg, 1 h after administration
[7] = 2.5 mg/kg, 2 h after administration
[8] = 2.5 mg/kg, 3 h after administration
[9] = 2.5 mg/kg, 4 h after administration
[10] = 5.0 mg/kg, 1 h after administration
[11] = 5.0 mg/kg, 2 h after administration
[12] = 5.0 mg/kg, 3 h after administration
[13] = 5.0 mg/kg, 4 h after administration
[14] = 10.0 mg/kg, 1 h after administration
[15] = 10.0 mg/kg, 3 h after administration
[16] = 10.0 mg/kg, 4 h after administration

COc1ccc([C@H]2OCC3C2CO[C@H]3c2ccc(OC)c(OC(=O)C(C)c3ccc(CC(C)C)cc3)c2)cc1OC (stereo partly shown) [Phillygenin ibuprofen ester, phillygenin ibuprofen ester]
antiviral effective rate (ER %) [1]: 75.89**^## % | antiviral effective rate (ER %) [2]: 75.83**^## % | antiviral effective rate (ER %) (Enterovirus EV71): 99.81**^## % | antiviral effective rate (ER %) (influenza virus): 99.95**^# % | antiviral effective rate (ER %) (parainfluenza virus): 100.00**^# % | Swelling ratio (%) ([3]; 2.5 mg/kg sublingual intravenous injection, 30 min): 0.215 ± 0.120% | Swelling ratio (%) ([3]; 2.5 mg/kg sublingual intravenous injection, 60 min): 0.293 ± 1.117% | Swelling ratio (%) ([3]; 2.5 mg/kg sublingual intravenous injection, 120 min): 0.450 ± 0.254% | Swelling ratio (%) ([3]; 2.5 mg/kg sublingual intravenous injection, 180 min): 0.800 ± 0.339% | Swelling ratio (%) ([3]; 2.5 mg/kg sublingual intravenous injection, 240 min): 0.865 ± 0.303% | Swelling ratio (%) ([3]; 2.5 mg/kg sublingual intravenous injection, 300 min): 1.045 ± 0.308% | Swelling ratio (%) ([3]; 2.5 mg/kg sublingual intravenous injection, 360 min): 0.930 ± 0.200% | Swelling ratio (%) ([3]; 5.0 mg/kg sublingual intravenous injection, 30 min): 0.065 ± 0.112 % | Swelling ratio (%) ([3]; 5.0 mg/kg sublingual intravenous injection, 60 min): 0.127 ± 0.178 % | Swelling ratio (%) ([3]; 5.0 mg/kg sublingual intravenous injection, 120 min): 0.209 ± 0.438 % | Swelling ratio (%) ([3]; 5.0 mg/kg sublingual intravenous injection, 180 min): 0.338 ± 0.524 % | Swelling ratio (%) ([3]; 5.0 mg/kg sublingual intravenous injection, 240 min): 0.461 ± 0.402**^Δ % | Swelling ratio (%) ([3]; 5.0 mg/kg sublingual intravenous injection, 300 min): 0.688 ± 0.503% | Swelling ratio (%) ([3]; 5.0 mg/kg sublingual intravenous injection, 360 min): 0.675 ± 0.578% | Swelling ratio (%) ([3]; 10.0 mg/kg sublingual intravenous injection, 30 min): 0.025 ± 0.210***^Δ▴▴▴ % | Swelling ratio (%) ([3]; 10.0 mg/kg sublingual intravenous injection, 60 min): 0.079 ± 0.156**^Δ▴▴ % | Swelling ratio (%) ([3]; 10.0 mg/kg sublingual intravenous injection, 120 min): 0.140 ± 0.156 % | Swelling ratio (%) ([3]; 10.0 mg/kg sublingual intravenous injection, 180 min): 0.191 ± 0.216 % | Swelling ratio (%) ([3]; 10.0 mg/kg sublingual intravenous injection, 240 min): 0.255 ± 0.294 % | Swelling ratio (%) ([3]; 10.0 mg/kg sublingual intravenous injection, 300 min): 0.310 ± 0.226***^Δ▴▴ % | Swelling ratio (%) ([3]; 10.0 mg/kg sublingual intravenous injection, 360 min): 0.405 ± 0.231 % | effect on the rat paw swelling induced by carrageenin vs blank control group ([3]; high dose group, within 30 min to 360 min after administration): significant inhibitive effects | Body temperature (° C.) [4, 6]: 38.93 ± 0.43 °C | antipyretic percentage (%) [4, 6]: −1.01 ± 1.05 % | Body temperature (° C.) [4, 7]: 38.75 ± 0.43 °C | antipyretic percentage (%) [4, 7]: −1.48 ± 1.11 % | Body temperature (° C.) [4, 8]: 38.56 ± 0.52 °C | antipyretic percentage (%) [4, 8]: −1.97 ± 1.67 % | Body temperature (° C.) [4, 9]: 38.25 ± 0.58 °C | antipyretic percentage (%) [4, 9]: −2.47 ± 1.80 % | Body temperature (° C.) [4, 10]: 38.48 ± 0.59 °C | antipyretic percentage (%) [4, 10]: −1.91 ± 0.40 % | Body temperature (° C.) [4, 11]: 38.33 ± 0.50 °C | antipyretic percentage (%) [4, 11]: −2.29 ± 0.54**^Δ▴▴ % | Body temperature (° C.) [4, 12]: 37.85 ± 0.33 °C | antipyretic percentage (%) [4, 12]: −3.52 ± 0.38***^Δ▴ % | Body temperature (° C.) [4, 13]: 37.67 ± 0.45 °C | antipyretic percentage (%) [4, 13]: −3.98 ± 0.52***^Δ▴▴ % | Body temperature (° C.) [4, 14]: 38.61 ± 0.51 °C | antipyretic percentage (%) [4, 14]: −2.10 ± 0.53**^Δ▴▴ % | Body temperature (° C.) ([4]; 10.0 mg/kg, 2 h after administration): 39.13 ± 0.45 °C | Body temperature (° C.) [4, 15]: 37.8 ± 0.40 °C | antipyretic percentage (%) [4, 15]: −4.01 ± 1.12***^Δ▴▴ % | Body temperature (° C.) [4, 16]: 37.74 ± 0.31 °C | antipyretic percentage (%) [4, 16]: −4.30 ± 1.26***^Δ▴▴ % | effect on the rat fever induced by beer yeast suspension vs model group ([4]; medium and high dose groups (5, 10 mg/kg), 1 h, 2 h, 3 h and 4 h after administration): significant cooling effects | effect on the sweat secretion of rat paw part vs control group ([5]; 10 mg/kg, after coating B liquid for 5, 10, 15 and 20 min, P<0.05): obvious promoting effect | Animal number of sweat points of level + ([5]; 2.5 mg/kg intragastric): 2 | Animal number of sweat points of level ++ ([5]; 2.5 mg/kg intragastric): 3 | Animal number of sweat points of level +++ ([5]; 2.5 mg/kg intragastric): 3 | Animal number of sweat points of level ++++ ([5]; 2.5 mg/kg intragastric): 2 | Animal number of sweat points of level − ([5]; 2.5 mg/kg intragastric): 0 | Animal number of sweat points of level + ([5]; 5.0 mg/kg intragastric): 1 | Animal number of sweat points of level ++ ([5]; 5.0 mg/kg intragastric): 2 | Animal number of sweat points of level +++ ([5]; 5.0 mg/kg intragastric): 3 | Animal number of sweat points of level ++++ ([5]; 5.0 mg/kg intragastric): 4 | Animal number of sweat points of level − ([5]; 5.0 mg/kg intragastric): 0 | Animal number of sweat points of level + ([5]; 10.0 mg/kg intragastric): 1 | Animal number of sweat points of level ++ ([5]; 10.0 mg/kg intragastric): 3
